Laboratory results reported in ChEMBL document CHEMBL1201862, “PubChem BioAssay data set” (2004).
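Step 1: Grow cells in 96-well plates. Step 2: Expose to compound for 48 hours at 5 concentrations. Step 3: Interpolate endpoints linearly; if unreached, use highest concentration. The concentration for 50% growth inhibition is given as GI50.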 Active and inactive are the calls of the source. Rule as the data show it: active = GI50 up to about 1.1 µM and inactive = higher.

Experiments:
Assay in all cases: inhibition of tumour cell growth, NCI panel, 48 h
SF-539 = tested on: SF-539
K562 = tested on: K562
DU-145 = tested on: DU-145
SNB-75 = tested on: SNB-75
UO-31 = tested on: UO-31
A549 = tested on: A549
SK-OV-3 = tested on: SK-OV-3
HCT-116 = tested on: HCT-116
RXF 393 = tested on: RXF 393
IGROV-1 = tested on: IGROV-1
PC-3 = tested on: PC-3
SF-268 = tested on: SF-268
MOLT-4 = tested on: MOLT-4
MCF7 = tested on: MCF7
NCI-H23 = tested on: NCI-H23
Hs-578T = tested on: Hs-578T
HCT-15 = tested on: HCT-15
LOX IMVI = tested on: LOX IMVI
KM12 = tested on: KM12
TK-10 = tested on: TK-10
NCI-H226 = tested on: NCI-H226
COLO 205 = tested on: COLO 205
T47D = tested on: T47D
EKVX = tested on: EKVX
RPMI-8226 = tested on: RPMI-8226
NCI/ADR-RES = tested on: NCI/ADR-RES
Malme-3M = tested on: Malme-3M
SK-MEL-5 = tested on: SK-MEL-5
OVCAR-3 = tested on: OVCAR-3
SK-MEL-2 = tested on: SK-MEL-2
UACC-62 = tested on: UACC-62
CAKI-1 = tested on: CAKI-1
UACC-257 = tested on: UACC-257
MDA-MB-435 = tested on: MDA-MB-435
M14 = tested on: M14
HL-60 = tested on: HL-60
HOP-92 = tested on: HOP-92
SNB-19 = tested on: SNB-19
BT-549 = tested on: BT-549
786-0 = tested on: 786-0
U-251 = tested on: U-251
SN12C = tested on: SN12C
MDA-MB-231 = tested on: MDA-MB-231
SW-620 = tested on: SW-620
HCC 2998 = tested on: HCC 2998
NCI-H460 = tested on: NCI-H460
OVCAR-8 = tested on: OVCAR-8
CCRF-CEM = tested on: CCRF-CEM
SK-MEL-28 = tested on: SK-MEL-28
MDA-N = tested on: MDA-N
OVCAR-5 = tested on: OVCAR-5
A498 = tested on: A498
HT-29 = tested on: HT-29
SF-295 = tested on: SF-295
HOP-62 = tested on: HOP-62
OVCAR-4 = tested on: OVCAR-4
SR = tested on: SR
ACHN = tested on: ACHN
NCI-H522 = tested on: NCI-H522

For `O=P(Oc1ccccc1)(Oc1ccccc1)Oc1c[nH]c2ccccc12`, the GI50 (SF-539) was 11.4 µM (inactive), the GI50 (K562) was 10.7 µM (inactive) and the GI50 (DU-145) was 36.6 µM (inactive). For the same compound, the GI50 (SNB-75) was 10.8 µM (inactive), the GI50 (UO-31) was 5.33 µM (inactive) and the GI50 (A549) was 11.1 µM (inactive). For the same compound, the GI50 (SK-OV-3) was 3.44 µM (inactive), the GI50 (HCT-116) was 15.2 µM (inactive) and the GI50 (RXF 393) was 13.7 µM (inactive). The GI50 (IGROV-1) was 4.07 µM (inactive), the GI50 (PC-3) was 0.847 µM (active) and the GI50 (SF-268) was 11.1 µM (inactive). For the same compound, the GI50 (MOLT-4) was 6.53 µM (inactive), the GI50 (MCF7) was 11 µM (inactive) and the GI50 (NCI-H23) was 10.1 µM (inactive). The GI50 (Hs-578T) was 13.3 µM (inactive), the GI50 (HCT-15) was 12.8 µM and the GI50 (LOX IMVI) was 14.6 µM (inactive). For the same compound, the GI50 (KM12) was 19.4 µM (inactive), the GI50 (TK-10) was 12.1 µM (inactive) and the GI50 (NCI-H226) was 9.68 µM (inactive). For the same compound, the GI50 (COLO 205) was 2.37 µM (inactive), the GI50 (T47D) was 8.91 µM (inactive) and the GI50 (EKVX) was 0.296 µM (active). For the same compound, the GI50 (RPMI-8226) was 0.103 µM (active), the GI50 (NCI/ADR-RES) was 3.45 µM (inactive) and the GI50 (Malme-3M) was 16.2 µM (inactive). For the same compound, the GI50 (SK-MEL-5) was 11.3 µM (inactive), the GI50 (OVCAR-3) was 14.5 µM (inactive) and the GI50 (SK-MEL-2) was 5.47 µM (inactive). The GI50 (UACC-62) was 8.97 µM (inactive), the GI50 (CAKI-1) was 4.13 µM (inactive) and the GI50 (UACC-257) was 8.55 µM (inactive). The GI50 (MDA-MB-435) was 12.2 µM (inactive), the GI50 (M14) was 11.3 µM (inactive) and the GI50 (HL-60) was 21.7 µM (inactive). For the same compound, the GI50 (HOP-92) was 1.57 µM (inactive), the GI50 (SNB-19) was 13.1 µM (inactive) and the GI50 (BT-549) was 17 µM (inactive). For the same compound, the GI50 (786-0) was 15.5 µM (inactive), the GI50 (U-251) was 12.3 µM (inactive) and the GI50 (SN12C) was 11.6 µM (inactive). The GI50 (MDA-MB-231) was 11.4 µM (inactive), the GI50 (SW-620) was 13.4 µM (inactive) and the GI50 (HCC 2998) was 1.95 µM (inactive). For the same compound, the GI50 (NCI-H460) was 12.8 µM (inactive), the GI50 (OVCAR-8) was 13.5 µM (inactive) and the GI50 (CCRF-CEM) was 0.141 µM (active). For the same compound, the GI50 (SK-MEL-28) was 12.7 µM (inactive), the GI50 (MDA-N) was 11 µM (inactive) and the GI50 (OVCAR-5) was 0.0449 µM (active). The GI50 (A498) was 14.1 µM (inactive), the GI50 (HT-29) was 6.07 µM (inactive) and the GI50 (SF-295) was 3.28 µM (inactive). For the same compound, the GI50 (HOP-62) was 14.9 µM (inactive), the GI50 (OVCAR-4) was 3.13 µM (inactive) and the GI50 (SR) was 25.4 µM (inactive).
For `CN(C)c1ccc(C(=C2C=CC(=[N+](C)C)C=C2)c2c(O)c(S(=O)(=O)[O-])cc3cc(S(=O)(=O)O)ccc23)cc1`, the GI50 (ACHN) was > 100 µM (inactive), the GI50 (SF-539) was > 100 µM (inactive) and the GI50 (K562) was > 100 µM (inactive). The GI50 (DU-145) was > 100 µM (inactive), the GI50 (SNB-75) was > 100 µM (inactive) and the GI50 (UO-31) was > 100 µM (inactive). The GI50 (A549) was > 100 µM (inactive), the GI50 (SK-OV-3) was > 100 µM (inactive) and the GI50 (HCT-116) was > 100 µM (inactive). The GI50 (RXF 393) was > 100 µM (inactive), the GI50 (IGROV-1) was > 100 µM (inactive) and the GI50 (PC-3) was > 100 µM (inactive). The GI50 (SF-268) was > 100 µM (inactive), the GI50 (MOLT-4) was > 100 µM (inactive) and the GI50 (MCF7) was > 100 µM (inactive). For the same compound, the GI50 (NCI-H23) was > 100 µM (inactive), the GI50 (Hs-578T) was > 100 µM (inactive) and the GI50 (HCT-15) was greater than 100 µM. For the same compound, the GI50 (LOX IMVI) was > 100 µM (inactive), the GI50 (KM12) was > 100 µM (inactive) and the GI50 (TK-10) was > 100 µM (inactive). For the same compound, the GI50 (NCI-H226) was > 100 µM (inactive), the GI50 (COLO 205) was > 100 µM (inactive) and the GI50 (NCI-H522) was > 100 µM (inactive). The GI50 (T47D) was > 100 µM (inactive), the GI50 (EKVX) was > 100 µM (inactive) and the GI50 (RPMI-8226) was > 100 µM (inactive). For the same compound, the GI50 (NCI/ADR-RES) was > 100 µM (inactive), the GI50 (Malme-3M) was > 100 µM (inactive) and the GI50 (SK-MEL-5) was > 100 µM (inactive). The GI50 (OVCAR-3) was > 100 µM (inactive), the GI50 (SK-MEL-2) was > 100 µM (inactive) and the GI50 (UACC-62) was > 100 µM (inactive). The GI50 (CAKI-1) was > 100 µM (inactive), the GI50 (UACC-257) was > 100 µM (inactive) and the GI50 (MDA-MB-435) was > 100 µM (inactive). The GI50 (M14) was > 100 µM (inactive), the GI50 (HOP-92) was > 100 µM (inactive) and the GI50 (SNB-19) was > 100 µM (inactive). For the same compound, the GI50 (BT-549) was > 100 µM (inactive), the GI50 (786-0) was > 100 µM (inactive) and the GI50 (U-251) was > 100 µM (inactive). For the same compound, the GI50 (SN12C) was > 100 µM (inactive), the GI50 (MDA-MB-231) was > 100 µM (inactive) and the GI50 (SW-620) was > 100 µM (inactive). For the same compound, the GI50 (HCC 2998) was > 100 µM (inactive), the GI50 (NCI-H460) was > 100 µM (inactive) and the GI50 (OVCAR-8) was > 100 µM (inactive). The GI50 (SK-MEL-28) was > 100 µM (inactive), the GI50 (MDA-N) was > 100 µM (inactive) and the GI50 (OVCAR-5) was > 100 µM (inactive). For the same compound, the GI50 (A498) was > 100 µM (inactive), the GI50 (HT-29) was > 100 µM (inactive) and the GI50 (SF-295) was > 100 µM (inactive). The GI50 (HOP-62) was > 100 µM (inactive), the GI50 (OVCAR-4) was > 100 µM (inactive) and the GI50 (SR) was > 100 µM (inactive).
